# Measurements as given in patent US20080051457A1, “Optically Active Phthalamide Derivative, Agricultural or Horticultural Insecticide, and Method of Using the Same” (priority 2004, published 2008).
# System: not listed separately
# Experiment: logP (pH2.3), physical properties of Tables 1 to 3
# Assay type: physicochemical
# Conditions: not given
# Description: However, the present invention is not limited to these compounds. In the tables, the term “physical properties” means a melting point or logp. The symbol “Me” represents a methyl group, “Et” represents an ethyl group, “Pr” represents a propyl group, “-n” represents normal, and “-i” represents iso.
row,Compound,Physical properties logP(pH2.3)
1,CSC[C@H](CC(C)C)NC(=O)c1c(Br)cccc1C(=O)Nc1ccc(C(F)(C(F)(F)F)C(F)(F)F)cc1C [Compound 1-360],5.16
2,Cc1cc(C(F)(C(F)(F)F)C(F)(F)F)ccc1NC(=O)c1cccc(Br)c1C(=O)N[C@@H](CC(C)C)C[S+](C)[O-] (some centres unmarked) [Compound 1-361],3.30
3,Cc1cc(C(F)(C(F)(F)F)C(F)(F)F)ccc1NC(=O)c1cccc(Br)c1C(=O)N[C@@H](CC(C)C)CS(C)(=O)=O [Compound 1-362],3.82
4,CSC[C@H](CC(C)C)NC(=O)c1c(I)cccc1C(=O)Nc1ccc(C(F)(C(F)(F)F)C(F)(F)F)cc1C [Compound 1-363],5.24
5,Cc1cc(C(F)(C(F)(F)F)C(F)(F)F)ccc1NC(=O)c1cccc(I)c1C(=O)N[C@@H](CC(C)C)C[S+](C)[O-] (some centres unmarked) [Compound 1-364],3.39
6,Cc1cc(C(F)(C(F)(F)F)C(F)(F)F)ccc1NC(=O)c1cccc(I)c1C(=O)N[C@@H](CC(C)C)CS(C)(=O)=O [Compound 1-365],3.87

# System: Diamond Back Moth (Plutella xylostella)
# Experiment: Test Example 1: insecticidal activity on diamond back moth, cabbage leaf disc dip
# Assay type: in vivo
# Conditions: foliar, 192 h, third instar larvae, eight days after the inoculation, read-out: insecticidal activity judged from mortality
# Description: (§1) A cabbage leaf disc (variety: Shikidori) cut into 7 cm-diameter was dipped for about 30 seconds into a chemical solution prepared by diluting a preparation containing each compound listed in Tables 1 and 2 as an active ingredient to adjust the concentration to 50 ppm. After dried, it was put into a plastic Petri dish with a diameter of 9 cm and inoculated with ten of the third instar larvae of diamond back moths. Eight days after the inoculation, the dead and alive larvae were counted. The mortality was calculated according to the following equation and the insecticidal activity was judged according to the criterion shown below. The test was carried out with three replications under the condition of 25° C., 50-60% RH and 16L-8D photoperiod. [formula]
row,Compound,mortality at 50 ppm
1,"CSC[C@H](C)NC(=O)c1c(I)cccc1C(=O)Nc1ccc(OC(F)(F)F)cc1C [Compound 1-42, (S)-3-iodo-N^1-(2-methyl-4-trifluoromethoxyphenyl)-N^2-(1-methyl-2-methylthioethyl)phthalamide]",100%
2,"Cc1cc(OC(F)(F)F)ccc1NC(=O)c1cccc(I)c1C(=O)N[C@@H](C)CS(C)(=O)=O [Compound 1-44, (S)-3-iodo-N′-(2-methyl-4-trifluoromethoxyphenyl)-N^2— (1-methyl-2-methylsulfonylethyl)phthalamide]",100%

# System: Common Cutworm (Spodoptera litura)
# Experiment: Test Example 2: insecticidal activity on common cutworm, cabbage leaf disc dip
# Assay type: in vivo
# Conditions: foliar, 192 h, second instar larvae, eight days after the inoculation, read-out: insecticidal activity judged from mortality
# Description: as §1, with “second” for “third”, “common cutworm.” for “diamond back moths.”, “calculated” for “calculated according to the following equation”, “in” for “according to”, “same manner as in Test Example 1.” for “criterion shown below.”, “photoperiod.” for “photoperiod. [formula]”
row,Compound,mortality at 50 ppm
1,"CSC[C@H](C)NC(=O)c1c(I)cccc1C(=O)Nc1ccc(OC(F)(F)F)cc1C [Compound 1-42, (S)-3-iodo-N^1-(2-methyl-4-trifluoromethoxyphenyl)-N^2-(1-methyl-2-methylthioethyl)phthalamide]",100%
2,"Cc1cc(OC(F)(F)F)ccc1NC(=O)c1cccc(I)c1C(=O)N[C@@H](C)CS(C)(=O)=O [Compound 1-44, (S)-3-iodo-N′-(2-methyl-4-trifluoromethoxyphenyl)-N^2— (1-methyl-2-methylsulfonylethyl)phthalamide]",100%

# System: Common White (Pieris Rapae)
# Experiment: Comparative Test 2: control of common white on cabbage by prick-in-hole application at transplanting
# Assay type: in vivo
# Conditions: Dosage 10 mgAI/plant, 27 days after the transplanting
# Protocol: An agent containing, as an active ingredient (AI), each of the compounds shown in the table and a comparative compound 1 (the compound with Compound No. 216 described in JP-A-2001-131141), was put into a prick-in-hole on the ground, and then cabbage seedlings (Variety: YR Seitoku) transplanted onto the treated hole (at the end of April). 27 days after the transplanting, the number of larvae of common white was counted. The control value was calculated according to the expression indicated below, and it was then evaluated in accordance with the criterion noted in Comparative test 1 above. One test group consisted of 20 cabbage loaves. [formula]
row,Compound,Evaluation of control value (27 days later)
1,Cc1cc(C(F)(C(F)(F)F)C(F)(F)F)ccc1NC(=O)c1cccc(I)c1C(=O)N[C@@H](C)C[S+](C)[O-] (some centres unmarked) [Compound 1-4],10 (Mortality 91%-100%)
2,Cc1cc(C(F)(C(F)(F)F)C(F)(F)F)ccc1NC(=O)c1cccc(I)c1C(=O)N[C@@H](C)CS(C)(=O)=O [Compound 1-5],10 (Mortality 91%-100%)
3,Cc1cc(C(F)(C(F)(F)F)C(F)(F)F)ccc1NC(=O)c1cccc(Br)c1C(=O)N[C@@H](C)CS(C)(=O)=O [Compound 1-74],10 (Mortality 91%-100%)
4,Cc1cc(C(F)(C(F)(F)F)C(F)(F)F)ccc1NC(=O)c1cccc(Cl)c1C(=O)N[C@@H](C)CS(C)(=O)=O [Compound 1-77],10 (Mortality 91%-100%)
